CC(C)(C)NCC(O)c1ccc(O)c(CO)c1 (stereo not given)
solubility (mole fraction)
Settings	in acetone	in ethanol	in ethyl acetate	in isobutanol	in isopropanol	in methanol	in methyl acetate	in n-butanol	in n-propanol	in sec-butanol
283.15 K	0.000146	0.00218	0.000185	0.00154	0.00185	0.00599	0.000377	0.00109	0.00212	0.00102
288.15 K	0.000162	0.00228	0.000204	0.00172	0.00205	0.00671	0.00041	0.0012	0.00235	0.00115
293.15 K	0.000185	0.00271	0.000231	0.00192	0.00244	0.00745	0.000441	0.00134	0.00267	0.00131
298.15 K	0.000211	0.00323	0.000261	0.00217	0.00278	0.00824	0.000471	0.00151	0.00317	0.00145
303.15 K	0.000237	0.00412	0.00029	0.00243	0.00331	0.00909	0.000509	0.00168	0.0036	0.00163
308.15 K	0.000271	0.0049	0.000323	0.00272	0.00382	0.0101	0.000545	0.00187	0.00413	0.00182
313.15 K	0.000302	0.00585	0.000363	0.00304	0.00441	0.0112	0.00059	0.00211	0.00479	0.00202
318.15 K	0.000346	0.00709	0.000399	0.00343	0.00512	0.0124	0.000631	0.00233	0.00552	0.00227
323.15 K	0.000396	0.00846	0.000452	0.00385	0.00597	0.0137	0.000682	0.00262	0.00634	0.00252
328.15 K	0.000451	0.0103	0.000501	0.00432	0.00698	0.0152	0.000735	0.00292	0.00743	0.00286
